Test results reported in US12090179B2, “Methods of synergistic treatment of cancer” (priority 2016, dated 2024).

Key:
[1] = Percent weight change as measure of toxicity in BALB-neuT mice; format: in vivo
Protocol: Female BALB-neu-T mice spontaneously developed palpable mammary fat pad tumors around 16 weeks of age (approximately 50-60 mm^3). At this time (day 0), the mice typically had 1-3 palpable tumors. For each experiment, individual tumors were measured by caliper, and their volume was calculated. Individual tumor volumes were calculated as spheroid (L×W^2×0.52) and combined to give a total tumor burden measurement for each mouse. Tumor burden data was gathered weekly from day 0 to day 35. Additionally, percent weight change data was gathered weekly for each mouse from day 0 to day 35. The percent weight change was calculated based on the baseline weight of each mouse.
Various embodiments of method 200, described above with respect to FIG. 2, were used to treat tumors in the BALB-neuT model using combinations of attenuated S. typhimurium and the chemotherapy agent doxorubicin. A prescribed amount per cfu of the appropriate S. typhimurium strain (SalpIL2 or SalpNG.1) was administered via intravenous injection or gavage orally in 100 μL of PBS. The doxorubicin was administered intravenously via tail vein. Additionally, using the same methods of administration, a number of control groups received PBS alone, doxorubicin alone, SalpIL2 alone, or SalpNG.1 alone.
FIG. 6 is a line graph of percent weight change versus days post-treatment in mice treated with combinations of attenuated S. typhimurium and doxorubicin compared to control groups. Weight change in mice is an accurate measure of the degree of toxicity of a chemotherapy agent. […] While the control group that received PBS (301) saw a greater than 25% increase in weight by day 30, the mice in that group died or were moribund and euthanized due to tumor growth.

[2] = system: mammary fat pad tumors; format: in vivo, BALB-neuT mice
Source text: The BALB-neuT model is a genetically engineered mouse model in which mammary tumor development is driven by expression of a constitutively activated rat homolog of human epidermal growth factor receptor 2. In this model, autochthonous tumors develop over several months and are palpable in the mammary pads of female mice around 16 weeks of age. The tumors closely resemble the aggressive Her2-driven cancer found in human patients.
BALB-neuT mice were maintained in specific pathogen free conditions and fed standard mouse chow (Harlan). Animals were cared for by the University of Minnesota's Research Animal Resources, and all animal use was approved by the University's Institutional Animal Care and Use Facility. Genotyping for the neu transgene was performed by Transnetyx on male and female pups. Breeding pairs consisted of heterozygous males and homozygous negative females. Female mice that were positive for the neu transgene were monitored for tumor development.
Three control groups received doxorubicin alone. The first control group (302) received the maximum tolerated dose (MTD) of intravenous (IV) 5 mg/kg doxorubicin on days 0, 7, and 14. The second control group (303) received IV 2.5 mg/kg (50% reduction in MTD) doxorubicin on days 0, 7 and 14.
One control group (305) of mice received SalpIL2 alone. […] Another control group (306) received Salp NG.1 alone.
For combination therapy treatment with SalpIL2, one group of mice (307) received an oral dose of 1×10^9 cfu SalpIL2 as well as IV 1.25 mg/kg doxorubicin on day 0. Two additional doses of IV 1.25 mg/kg doxorubicin were administered on days 7 and 14. For combination therapy treatment with SalpNG.1, a first group of mice (308) received an IV dose of 2×10^6 cfu SalpNG.1 as well as IV 1.25 mg/kg doxorubicin on day 0. Two additional doses of IV 1.25 mg/kg doxorubicin were administered on days 7 and 14. A second group of mice (309) received an IV dose of 2×10^6 cfu SalpNG.1 as well as IV 2.5 mg/kg doxorubicin on day 0. Two additional doses of IV 2.5 mg/kg doxorubicin were administered on days 7 and 14.

[3] = doxorubicin alone IV 1.25 mg/kg on days 0, 7, 14, group 304
[4] = doxorubicin alone IV 5 mg/kg (MTD) on days 0, 7, 14, group 302
[5] = doxorubicin alone IV 1.25 mg/kg (25% of MTD) on days 0, 7, 14, group 304

COc1cccc2c1C(=O)c1c(O)c3c(c(O)c1C2=O)C[C@@](O)(C(=O)CO)C[C@@H]3O[C@H]1C[C@H](N)[C@H](O)[C@H](C)O1 [doxorubicin]
toxicity judged from weight change [1, 3]: non-toxic | weight change by day 14 [1, 3]: did not show any weight loss | weight gain by day 35 [1, 3]: < 10% | toxicity judged from weight change [1, 4]: significant toxicity | weight loss by day 14 [1, 4]: greater than 20% | weight loss by day 35 [1, 4]: ~10% | tumor burden relative to the MTD doxorubicin group (302) by day 21 [2, 5]: almost double | tumor burden relative to the MTD doxorubicin group (302) by day 35 [2, 5]: ~5 times | tumor burden compared with groups 302 (MTD) and 304 (1.25 mg/kg) ([2]; doxorubicin alone IV 2.5 mg/kg (50% of MTD) on days 0, 7, 14, group 303): in between | tumor burden at day 35 [2, 4]: around 100 mm^3 | tumor burden compared with the other groups [2, 4]: lowest
